# Values of other authors, collected in patent US20120093932A1, “TARGETED SUSTAINED-RELEASE MICROSPHERE OF VASCULAR OCCLUSIVE AGENT CONTAINING SODIUM ALGINATE AND SORAFENIB, PRODUCTION METHOD AND USE THEREOF” (Beijing Shengyiyao Science & Technology Development Co., …, priority 2009, published 2012).
# Assays:
# [1] = oral single dose, solution containing 100 mg sorafenib
# [2] = 400 mg orally twice a day; Phase I
# [3] = oral administration
# [4] = not given; remark: listed apart in the source
smiles,measurement,setting,value
CNC(=O)c1cc(Oc2ccc(NC(=O)Nc3ccc(Cl)c(C(F)(F)F)c3)cc2)ccn1.Cc1ccc(S(=O)(=O)O)cc1 [sorafenib tosylate],solubility in alcohol,alcohol,slightly soluble
same,solubility in aqueous solution,"aqueous solution, becomes higher a little bit under strongly acid condition",low
same,solubility in polyethylene glycerol 400,polyethylene glycerol 400,can be dissolved
"CNC(=O)c1cc(Oc2ccc(NC(=O)Nc3ccc(Cl)c(C(F)(F)F)c3)cc2)ccn1 [sorafenib, 4-{4-[3-(4-chloro-3-trifluoro-phenyl)-ureido]-phenoxyl}-pyridine-2-carboxylic methylamine]",excreted as glucuronic acid metabolic products in urine,[1],19%
same,excreted unchanged (faeces),[1]; within 14 days,15%
same,sorafenib excreted in the faeces,[1]; within 14 days,77%
same,tolerability and effectiveness,[2],tolerated and effective
same,side effects: diarrhea,[3],58%
same,side effects: gastrointestinal response,[3],95%
same,side effects: indigestion accompanied by appetite loss,[3],47%
same,side effects: nausea,[3],30%
same,side effects: vomiting,[3],24%
[O-][n+]1ccccc1 [pyridine N-Oxide],role in vitro compared to sorafenib,[4],plays a similar role to sorafenib
